Legend:
pNL4-3 WT = assay: Antiviral activity against pNL4-3 WT strain in MT4 cells (p24 estimation); assay type: cell-based, HIV-1; conditions: Human immunodeficiency virus 1, MT4, 96 h, read-out: pNL4-3 WT IC50
Protocol: (§1) MT4 cells were Transfected with HIV-1 Plasmid (pNL4-3-WT & V7A) (Cells were incubating with required number of TCID50 of HIV-1 for 1.5 h at 37° C.). After infection, the infected cells were plated at the concentration of 3×10^4 cells per well in 96 well plate. Test compound was added to the test plate in defined format with the final concentration of DMSO is not more than 1%. Incubation was carried out in CO2 incubator for 4 days for viral infection. At the end of incubation period an aliquot from each well was taken for p24 estimation. p24 estimation was carried out using Advance biosciences kit as per the procedure detailed by supplier.

HIV-1 strain 92HT599 = assay: Antiviral activity against HIV-1 strain 92HT599 in MT2 cells (p24 estimation); assay type: cell-based; conditions: Human immunodeficiency virus 1; HIV-1 strain 92HT599, MT2 cells, ~96 hours, p24; read-out: IC50
Protocol: MT2 cells were infected with HIV-1 strain 92HT599 (10 TCID 50/30000 cells). The infected cells were plated at the concentration of ˜30,000 cells per well in 96 well plate. Test compound was added to the micro plate in defined format with the final concentration of DMSO (vehicle) is not more than 1%. Incubation was carried out in CO2 incubator for ˜96 hours for viral infection. At the end of incubation period an aliquot from each well was taken for p24 estimation. The quantitation of p24 is an index for antiviral activity of the compound. Percent inhibition was calculated with reference to control values (vehicle controls). p24 estimation was carried out using Advance biosciences kit as per the procedure detailed by supplier.
The IC50 (nM) values are set forth in below Table-1.

pNL4-3 V7A = assay: Antiviral activity against pNL4-3 V7A strain in MT4 cells (p24 estimation); assay type: cell-based, HIV-1; conditions: Human immunodeficiency virus 1, MT4, 96 h, read-out: pNL4-3 V7A IC50
Protocol: as §1

SMILES: CC(C)S(=O)(=O)N1CCN([C@@H](C)CN[C@]23CC[C@@H](C4(C)CC4)[C@@H]2[C@H]2CC[C@@H]4[C@@]5(C)CC[C@H](OC(=O)[C@H]6C[C@@H](C(=O)O)C6(C)C)C(C)(C)[C@@H]5CC[C@@]4(C)[C@]2(C)CC3)CC1 [Example 11, (1R,3S)-3-((((1R,3aS,5aR,5bR,7aR,9S,11aR,11bR,13aR,13bR)-3a-(((S)-2-(4-(isopropylsulfonyl)piperazin-1-yl)propyl)amino)-5a,5b,8,8,11a-pentamethyl-1-(1-methylcyclopropyl)icosahydro-1H-cyclopenta[a]chrysen-9-yl)oxy)carbonyl)-2,2-dimethyl cyclobutane-1-carboxylic acid]
- IC50 (pNL4-3 WT): < 0.01 µM
- IC50 (HIV-1 strain 92HT599): < 0.01 µM
- IC50 (pNL4-3 V7A): 0.001 to 0.05 µM

SMILES: CC1([C@@H]2CC[C@]3(NC[C@H](CF)N4CCS(=O)(=O)CC4)CC[C@]4(C)[C@H](CC[C@@H]5[C@@]6(C)CC[C@H](OC(=O)[C@H]7C[C@@H](C(=O)O)C7(C)C)C(C)(C)[C@@H]6CC[C@]54C)[C@@H]23)CC1 [Example 10, (1R,3S)-3-((((1R,3aS,5aR,5bR,7aR,9S,11aR,11bR,13aR,13bR)-3a-(((R)-2-(1,1-dioxidothiomorpholino)-3-fluoropropyl)amino)-5a,5b,8,8,11a-pentamethyl-1-(1-methylcyclopropyl)icosahydro-1H-cyclopenta[a]chrysen-9-yl)oxy)carbonyl)-2,2-dimethyl cyclobutane-1-carboxylic acid]
- IC50 (pNL4-3 WT): < 0.01 µM
- IC50 (HIV-1 strain 92HT599): < 0.01 µM
- IC50 (pNL4-3 V7A): 0.001 to 0.05 µM

SMILES: COCCOCC(=O)O[C@H](C)[C@@H](CN[C@]12CC[C@@H](C3(C)CC3)[C@@H]1[C@H]1CC[C@@H]3[C@@]4(C)CC[C@H](OC(=O)[C@H]5C[C@@H](C(=O)O)C5(C)C)C(C)(C)[C@@H]4CC[C@@]3(C)[C@]1(C)CC2)N1CCS(=O)(=O)CC1 [Example 17, (1R,3S)-3-((((1R,3aS,5aR,5bR,7aR,9S,11aR,11bR,13aR,13bR)-3a-(((2R,3R)-2-(1,1-dioxidothiomorpholino)-3-(2-(2-methoxyethoxy)acetoxy)butyl)amino)-5a,5b,8,8,11a-pentamethyl-1-(1-methylcyclopropyl)icosahydro-1H-cyclopentachrysen-9-yl)oxy)carbonyl)-2,2-dimethylcyclobutane-1-carboxylic acid]
- IC50 (pNL4-3 WT): < 0.01 µM
- IC50 (HIV-1 strain 92HT599): < 0.01 µM
- IC50 (pNL4-3 V7A): 0.001 to 0.05 µM

SMILES: C[C@H](F)[C@@H](CN[C@]12CC[C@@H](C3(C)CC3)[C@@H]1[C@H]1CC[C@@H]3[C@@]4(C)CC[C@H](OC(=O)[C@H]5C[C@@H](C(=O)O)C5(C)C)C(C)(C)[C@@H]4CC[C@@]3(C)[C@]1(C)CC2)N1CCS(=O)(=O)CC1 [Example 12, (1R,3S)-3-((((1R,3aS,5aR,5bR,7aR,9S,11aR,11bR,13aR,13bR)-3a-(((2R,3 S)-2-(1,1-dioxidothiomorpholino)-3-fluorobutyl)amino)-5a,5b,8,8,11a-pentamethyl-1-(1-methylcyclopropyl)icosahydro-1H-cyclopentachrysen-9-yl)oxy)carbonyl)-2,2-di methylcyclobutane-1-carboxylic acid]
- IC50 (pNL4-3 WT): 0.01 to 0.05 µM
- IC50 (HIV-1 strain 92HT599): > 0.02 µM
- IC50 (pNL4-3 V7A): > 0.1 µM

SMILES: CC1([C@@H]2CC[C@]3(NCC(C)(C)N4CCS(=O)(=O)CC4)CC[C@]4(C)[C@H](CC[C@@H]5[C@@]6(C)CC[C@H](OC(=O)[C@H]7C[C@@H](C(=O)O)C7(C)C)C(C)(C)[C@@H]6CC[C@]54C)[C@@H]23)CC1 [Example 1, (1R,3S)-3-((((1R,3aS,5aR,5bR,7aR,9S,11aR,11bR,13aR,13bR)-3a-((2-(1,1-dioxidothiomorpholino)-2-methylpropyl)amino)-5a,5b,8,8,11a-pentamethyl-1-(1-methylcyclopropyl)icosahydro-1H-cyclopentachrysen-9-yl)oxy)carbonyl)-2,2-dimethyl cyclobutane-1-carboxylic acid]
- IC50 (pNL4-3 WT): > 0.05 µM
- IC50 (HIV-1 strain 92HT599): > 0.02 µM
- IC50 (pNL4-3 V7A): > 0.1 µM

SMILES: C[C@H](O)[C@H](CN[C@]12CC[C@@H](C3(C)CC3)[C@@H]1[C@H]1CC[C@@H]3[C@@]4(C)CC[C@H](OC(=O)[C@H]5C[C@@H](C(=O)O)C5(C)C)C(C)(C)[C@@H]4CC[C@@]3(C)[C@]1(C)CC2)N1CCS(=O)(=O)CC1 [Example 13, (1R,3S)-3-((((1R,3aS,5aR,5bR,7aR,9S,11aR,11bR,13aR,13bR)-3a-(((2S,3S)-2-(1,1-dioxidothiomorpholino)-3-hydroxybutyl)amino)-5a,5b,8,8,11a-pentamethyl-1-(1-methylcyclopropyl)icosahydro-1H-cyclopenta[a]chrysen-9-yl)oxy)carbonyl)-2,2-dimethylcyclobutane-1-carboxylic acid]
- IC50 (pNL4-3 WT): < 0.01 µM
- IC50 (HIV-1 strain 92HT599): < 0.01 µM
- IC50 (pNL4-3 V7A): 0.001 to 0.05 µM

SMILES: C=C(C)[C@@H]1CC[C@]2(NC[C@H]([C@@H](C)O)N3CCS(=O)(=O)CC3)CC[C@]3(C)[C@H](CC[C@@H]4[C@@]5(C)CC[C@H](OC(=O)CC(C)(C)C(=O)O)C(C)(C)[C@@H]5CC[C@]43C)[C@@H]12 [Example 20, 4-(((1R,3aS,5aR,5bR,7aR,9S,11aR,11bR,13aR,13bR)-3a-(((2R,3R)-2-(1,1-dioxidothiomorpholino)-3-hydroxybutyl)amino)-5a,5b,8,8,11a-pentamethyl-1-(prop-1-en-2-yl)icosahydro-1H-cyclopentachrysen-9-yl)oxy)-2,2-dimethyl-4-oxobutanoic acid]
- IC50 (pNL4-3 WT): < 0.01 µM
- IC50 (HIV-1 strain 92HT599): < 0.01 µM
- IC50 (pNL4-3 V7A): 0.001 to 0.05 µM

SMILES: COCCOCCOCCO[C@H](C)[C@@H](CN[C@]12CC[C@@H](C3(C)CC3)[C@@H]1[C@H]1CC[C@@H]3[C@@]4(C)CC[C@H](OC(=O)[C@H]5C[C@@H](C(=O)O)C5(C)C)C(C)(C)[C@@H]4CC[C@@]3(C)[C@]1(C)CC2)N1CCS(=O)(=O)CC1 [Example 18, (1R,3S)-3-((((1R,3aS,5aR,5bR,7aR,9S,11aR,11bR,13aR,13bR)-3a-(((12R,13R)-13-(1,1-dioxidothiomorpholino)-12-methyl-2,5,8,11-tetraoxatetradecan-14-yl)amino)-5a,5b,8,8,11a-pentamethyl-1-(1-methylcyclopropyl)icosahydro-1H-cyclopenta[a]chrysen-9-yl)oxy)carbonyl)-2,2-dimethylcyclobutane-1-carboxylic acid]
- IC50 (pNL4-3 WT): < 0.01 µM
- IC50 (HIV-1 strain 92HT599): < 0.01 µM
- IC50 (pNL4-3 V7A): 0.001 to 0.05 µM

SMILES: CC(C)S(=O)(=O)N1CCN([C@H](CN[C@]23CC[C@@H](C4(C)CC4)[C@@H]2[C@H]2CC[C@@H]4[C@@]5(C)CC[C@H](OC(=O)[C@H]6C[C@@H](C(=O)O)C6(C)C)C(C)(C)[C@@H]5CC[C@@]4(C)[C@]2(C)CC3)[C@@H](C)O)CC1 [Example 14, (1R,3S)-3-((((1R,3aS,5aR,5bR,7aR,9S,11aR,11bR,13aR,13bR)-3a-(((2R,3R)-3-hydroxy-2-(4-(isopropylsulfonyl)piperazin-1-yl)butyl)amino)-5a,5b,8,8,11a-pentamethyl-1-(1-methylcyclopropyl)icosahydro-1H-cyclopenta[a]chrysen-9-yl)oxy)carbonyl)-2,2-dimethylcyclobutane-1-carboxylic acid]
- IC50 (pNL4-3 WT): < 0.01 µM
- IC50 (HIV-1 strain 92HT599): < 0.01 µM
- IC50 (pNL4-3 V7A): 0.001 to 0.05 µM

From patent publication US12275712B2, “Triterpene derivatives as HIV inhibitors” (HETERO LABS LIMITED, priority 2019, dated 2025)
